Experimental data as given in patent US11000708B2 (priority 2015, dated 2021).
Read-outs that look alike come from different tables or passages of the source.

How the values were obtained:
[1] = test system: Mycobacterium tuberculosis; conditions: against Mycobacterium tuberculosis; reported domestically; cited from earlier work
[2] = test system: M. tuberculosis H37Rv (ATCC 27294); conditions: reported abroad; cited from earlier work
[3] = test system: sensitive Mycobacterium tuberculosis; conditions: reported domestically; cited from earlier work
drug-resistant bacteria = conditions: reported domestically; cited from earlier work
[4] = test system: Mycobacterium tuberculosis standard strains H37Rv; conditions: quality control H37Rv

## CC[C@H]1OC(=O)[C@H](C)[C@@H](O[C@H]2C[C@@](C)(OC)[C@@H](O)[C@H](C)O2)[C@H](C)[C@@H](O[C@@H]2O[C@H](C)C[C@H](N(C)C)[C@H]2O)[C@](C)(O)C[C@@H](C)CN(C)[C@H](C)[C@@H](O)[C@]1(C)O [azithromycin]
[1]
  MIC: 128 micrograms/milliliter
[2]
  MIC: 95 micrograms/milliliter

## CC[C@H]1OC(=O)[C@H](C)[C@@H](O[C@H]2C[C@@](C)(OC)[C@@H](O)[C@H](C)O2)[C@H](C)[C@@H](O[C@@H]2O[C@H](C)C[C@H](N(C)C)[C@H]2O)[C@](C)(OC)C[C@@H](C)C(=O)[C@H](C)[C@@H](O)[C@]1(C)O [clarithromycin]
[3]
  MIC: 0.25-2.0 micrograms/milliliter
[2]
  MIC: 6 micrograms/milliliter
drug-resistant bacteria
  MIC: 2.0-32 micrograms/milliliter

## CC[C@H]1OC(=O)[C@H](C)[C@@H](O[C@H]2C[C@@](C)(OC)[C@@H](O)[C@H](C)O2)[C@H](C)[C@@H](O[C@@H]2O[C@H](C)C[C@H](N(C)C)[C@H]2O)[C@](C)(O)C[C@@H](C)/C(=N\OCOCCOC)[C@H](C)[C@@H](O)[C@]1(C)O [roxithromycin]
[2]
  MIC: greater than or equal to 64 micrograms/milliliter

## CC[C@H]1OC(=O)C[C@@H](O)[C@H](C)[C@@H](O[C@@H]2O[C@H](C)[C@@H](O[C@H]3C[C@@](C)(O)[C@@H](O)[C@H](C)O3)[C@H](N(C)C)[C@H]2O)[C@@H](CC=O)C[C@@H](C)C(=O)/C=C/C(C)=C/[C@@H]1CO[C@@H]1O[C@H](C)[C@@H](O)[C@@H](OC)[C@H]1OC [tylosin]
[2]
  MIC: 58.6 micrograms/milliliter

## carrimycin
[4]; carrimycin 1 μg/ml
  growth of bacterial colonies on drug-containing culture medium: 4+ (positive (4+) if the bacterial colonies closely grow on the slant face of the culture medium and account for ¾ or more of the area of the slant face)
[4]; carrimycin 20 μg/ml
  growth of bacterial colonies on drug-containing culture medium: −
